Measured values from US20240122865A1, “Methods of Protecting RNA” (Pfizer Inc., priority 2021, published 2024).
Where “and” joins values, the source holds several entries; their conditions need not be identical. Equal entries are not always repeated.

How the values were obtained:
Format in all cases: biochemical, Trichoderma atroviride
Chi18 model RNA [1] = assay: Droplet Digital Polymerase Chain Reaction (ddPCR) Assay, Chi18; details: percent protection, pH 11.0, 30° C., 16 hours, n = 2
Procedure: (§1) The ddPCR assays measure RNA integrity by converting intact RNA to cDNA by reverse transcription, then performing digital PCR in thousands of nanoliter-sized droplets for each sample. PCR is performed within each droplet, which allows for more sensitive detection of subtle changes in RNA concentration compared to traditional PCR or qPCR. Additionally, primers/probes specific to the 5′ end of the RNA/cDNA transcript(s) are used to assess fragment integrity—e.g. degraded RNA will have fewer 5′ positive droplets. The BioRad QX200 Droplet Digital PCR System was used for the ddPCR workflow.
(§2) Basic assay procedure: RNA samples (Chi18 or FgenL fragments) were diluted to 25 fg/μL or 10 fg/μL, respectively, in 50 mM […] buffer pH 11.0. Amino acid stocks were made up in 50 mM CAPS buffer, pH 11.0 and subsequently re-adjusted to pH 11.0, post solubilization. Amino acid stocks were tested in a dose-response format to determine EC50. An amino acid dilution plate containing a ˜300 mM (or appropriate) top-concentration of amino acid in 50 mM CAPS buffer was serially (half-log) diluted for 10 times. 0.6 μL of this compound dilution plate was spotted into a 96-well PCR plate (Thermo). Sample RNAs were added (6 μL) and incubated with test amino acid as described below.
(§3) Degradation reaction: Treated RNAs were incubated for 16 hours at 30° C. for Chi18 samples or 44° C. for FgenL samples. Upon completion of the degradation reaction, cDNA was made from the intact RNA by Reverse Transcription and ddPCR run for each sample (96 well plates). Positive 5′ droplet values were divided by the total accepted droplet values for each sample and a ratio value generated for each sample.
(§4) EC50 was determined by using a four parameter logistic equation: Y=A+((B−A)/(1+(C/X)D)); where Y is percent protection, X is compound concentration, A and B are minimum and maximum asymptotes, respectively, C is EC50, and D is Hill slope.

Chi18 model RNA [2] = assay: TapeStation Assay, Chi18 model RNA; parameters: Conc. chi18#1 / Conc. chi18#2: unit not given here; details: for % Control N = 1 / % Control N = 2 / % Control Avg.: Chi18 RNA, 20 mM amino acids, 50 mM CAPS pH 11, 50° C. 15 min; for % Control N = 1 / % Control N = 2: vs Time 0; for % Control Avg.: vs Time 0, Avg N=2; for Conc. chi18#1 / Conc. chi18#2: intact Chi18 RNA after 15 min at 50° C.; for Conc. chi18#1: 20 mM amino acids in 50 mM CAPS pH 11, run #1; for Conc. chi18#2: 20 mM amino acids in 50 mM CAPS pH 11, run #2
Procedure: (§5) These assays were performed with amino acids and compared to a no-degradation baseline control to gauge degree of protection imparted by the amino acid. Multiple functional assay approaches were used where differing endpoints were measured including a droplet digital PCR (ddPCR) assay where intact RNA sequence was quantitated, a size exclusion base hydrolysis degradation assay that used a size exclusion column to determine the degree of degradation occurring to an mRNA construct, and finally, a TapeStation assay that utilizes capillary electrophoresis and optical detection to measure intact RNA. […] Affinity selection by mass spectrometry (ASMS), native electrospray ionization mass spectrometry (nESI-MS) and nuclear magnetic resonance (NMR) may be used as several complementary approaches to ascertain compound binding to RNA. The latter techniques utilize MS to measure mass of bound compound alone (ASMS), or mass of RNA and bound compound (nESI-MS). The nESI-MS and NMR studies may be conducted to provide direct analytical quantification of resulting complex via measurement of mass (nESI-MS) or chemical shifts (NMR). The ASMS experiment is conducted to determine saturation binding of the compound to RNA where resulting apparent binding constants (KD,App) may be generated. Further descriptions of the functional and binding assays are provided in the section below.
(§6) In principle, samples are loaded to the instrument where electrophoresis separates component RNA's on the basis of mass, and subsequently analyzes these optically as they travel through the capillary.
(§7) RNA samples were diluted to the appropriate concentration to fall within the linear range of detection for the RNA ScreenTape Assay. Model Chi18 or FgenL RNAs were diluted to 50 ng/μL in 50 mM CAPS buffer pH 11. Amino acid stocks were made up in 50 mM CAPS pH 11 and re-adjusted to >pH 11 after solubilization. […] The samples were aliquoted to PCR tubes for each time point (Time 0 or 15 minutes). Degradation reaction: Samples were incubated at 50° C. for 0 to 15 minutes in a thermocycler, removed at the appropriate time point and placed on ice. Time 0 samples remained on ice.

FgenL model RNA [3] = assay: TapeStation Assay, FgenL model RNA; parameters: Conc. FgenL#1 / Conc. FgenL#2: unit not given here; details: for % Control N = 1 / % Control N = 2 / % Control Average: FgenL RNA, 20 mM amino acids, 50 mM CAPS pH 11, 50° C. 15 min; for % Control N = 1 / % Control N = 2: vs Time 0; for % Control Average: vs Time 0, Avg N=2; for Conc. FgenL#1 / Conc. FgenL#2: intact FgenL RNA after 15 min at 50° C.; for Conc. FgenL#1: 20 mM amino acids in 50 mM CAPS pH 11, run #1; for Conc. FgenL#2: 20 mM amino acids in 50 mM CAPS pH 11, run #2
Procedure: as §5, §6, §7

Chi18 mRNA construct = assay: Size Exclusion Base Hydrolysis Degradation Assay, Chi18; details: for T0 R1 peak area at 250 nm: Chi18 0.1 mg/mL, 25 mM amino acid, 50 mM CAPS, T=0, replicate 1; for T2 Avg, peak area as percentage of T=0 / T2 R1 peak area at 250 nm / T10 Avg, peak area as percentage of T=0 / T10 R1 peak area at 250 nm / T24 Avg, peak area as percentage of T=0 / T24 R1 peak area at 250 nm / T0 Avg, peak area as percentage of T=0: Chi18, 25 mM amino acid; for T2 Avg, peak area as percentage of T=0 / T2 R1 peak area at 250 nm / T10 Avg, peak area as percentage of T=0 / T10 R1 peak area at 250 nm / T24 Avg, peak area as percentage of T=0 / T24 R1 peak area at 250 nm: 50 mM CAPS pH 11, room temperature; for T2 Avg, peak area as percentage of T=0 / T2 R1 peak area at 250 nm: 2 hrs; for T2 R1 peak area at 250 nm / T10 R1 peak area at 250 nm / T24 R1 peak area at 250 nm: replicate 1; for T10 Avg, peak area as percentage of T=0 / T10 R1 peak area at 250 nm: 10 hrs; for T24 Avg, peak area as percentage of T=0 / T24 R1 peak area at 250 nm: 24 hrs; for T0 Avg, peak area as percentage of T=0: T=0 (reference)
Procedure: Basic assay procedure: RNA samples were diluted to 1.0 mg/mL in DNAase/RNAase free water. Amino acids were dissolved in water to a stock solution of 100 mM and a solution of 500 mM CAPS pH 11 was used. The two mRNA constructs tested were FgenL and Chi18. Each individual sample volume was 50 μL. To determine the amount of 1 M NaOH needed to adjust the final pH to 11.0 after the addition of all sample components, the sample volume was increased 100 fold (5 mL), the volume of 1 M NaOH recorded and this value was translated back down to the 50 μL sample volume.
The mRNA and amino acid were allowed to incubate for one hour prior to the addition of CAPS pH 11. All steps of the assay were conducted at room temperature.
Degradation reaction: After the CAPS addition, the samples were injected onto the Waters H-Class UPLC system to record the first timepoint, T=O. This resulting chromatogram was processed by integrating the area of absorbance at 250 nm for the mRNA construct. Immediately following this timepoint, the pH was adjusted to 11. Subsequent time points (2 hrs, 10 hrs, and 24 hrs) recorded the Absorbance Units (peak area) at 250 nm as a percentage of the peak area determined at T=O. Integration of the chromatogram for subsequent timepoints was conducted by analyzing the area of absorbance at 250 nm contained within the same time window in which the peak eluted in T=0 for the 100% intact mRNA.

FgenL model RNA [4] = details: percent protection, pH 11.0, 44° C., 16 hours, n = 2
Procedure: as §1, §2, §3, §4

Row | Structure (SMILES) | EC50 (Chi18 model RNA [1]) | % Control N = 1 (Chi18 model RNA [2]) | % Control N = 2 (Chi18 model RNA [2]) | % Control Avg. (Chi18 model RNA [2]) | Conc. chi18#1 (Chi18 model RNA [2]) | Conc. chi18#2 (Chi18 model RNA [2]) | % Control N = 1 (FgenL model RNA [3]) | % Control N = 2 (FgenL model RNA [3]) | % Control Average (FgenL model RNA [3]) | Conc. FgenL#1 (FgenL model RNA [3]) | Conc. FgenL#2 (FgenL model RNA [3]) | T0 R1 peak area at 250 nm (Chi18 mRNA construct) | T2 Avg, peak area as percentage of T=0 (Chi18 mRNA construct) | T2 R1 peak area at 250 nm (Chi18 mRNA construct) | T10 Avg, peak area as percentage of T=0 (Chi18 mRNA construct) | T10 R1 peak area at 250 nm (Chi18 mRNA construct) | T24 Avg, peak area as percentage of T=0 (Chi18 mRNA construct) | T24 R1 peak area at 250 nm (Chi18 mRNA construct) | T0 Avg, peak area as percentage of T=0 (Chi18 mRNA construct) | EC50 (FgenL model RNA [4]) | other results
1 | N[C@@H](CC(=O)O)C(=O)O [Aspartic acid] | 6.1 mM | 52.5% | 53.5% | 53.0% | 28 | 28.3 | 107.0% | 91.1% | 99.0% | 36.9 | 31.6 | 11079 | 69.4% | 7643 | 0.0% | 0 | 0.0% | 0 | 100.0% |  | 
2 | N[C@@H](CS)C(=O)O [Cysteine] | > 30 mM | 4.5% | 3.5% | 4.0% | 2.39 | 1.85 | 4.9% | 5.9% | 5.4% | 1.7 | 2.05 |  |  |  | 0.0% | 0 | 0.0% | 0 | 100.0% | > 30 mM | T0 R1 peak area at 250 nm (Chi18 mRNA construct; listed as Cys): 39458 and 20358; T2 R1 peak area at 250 nm (Chi18 mRNA construct; listed as Cys): 25387 and 14715; T2 Avg, peak area as percentage of T=0 (Chi18 mRNA construct; listed as Cys): 60.4% and 61.4%
3 | N[C@@H](CCC(=O)O)C(=O)O [Glutamic acid] | 6.7 mM | 76.0% | 94.5% | 85.3% | 40.5 | 50 | 89.9% | 76.1% | 83.0% | 31 | 26.4 | 19221 | 92.8% | 16514 | 151.2% | 6324 |  | 0 | 100.0% | 19 mM | 
